Source: US20080194539A1, “Phenyl Diazepane Carboxamides and Annelated Phenyl Piperazine Carboxamides Containing Oxygen and Used as Dopamine D3 Antagonists” (Schwarz Pharma AG, priority 2004, published 2008)
pEC50, pKi: −log10 of the molar value. Read-outs that look alike come from different tables or passages of the source.

How the values were obtained:
human D2short = molecular target: T1, human D2short (Homo sapiens, UniProt P14416); assay: Radioligand binding, human D2short in CHO cell membranes, [3H]spiperone; settings: human receptor in CHO membranes, average of 2-6 experiments in triplicate
T1 construct: expressed in transfected cells
T1 sequence (P14416 1-414 isoform P14416-2): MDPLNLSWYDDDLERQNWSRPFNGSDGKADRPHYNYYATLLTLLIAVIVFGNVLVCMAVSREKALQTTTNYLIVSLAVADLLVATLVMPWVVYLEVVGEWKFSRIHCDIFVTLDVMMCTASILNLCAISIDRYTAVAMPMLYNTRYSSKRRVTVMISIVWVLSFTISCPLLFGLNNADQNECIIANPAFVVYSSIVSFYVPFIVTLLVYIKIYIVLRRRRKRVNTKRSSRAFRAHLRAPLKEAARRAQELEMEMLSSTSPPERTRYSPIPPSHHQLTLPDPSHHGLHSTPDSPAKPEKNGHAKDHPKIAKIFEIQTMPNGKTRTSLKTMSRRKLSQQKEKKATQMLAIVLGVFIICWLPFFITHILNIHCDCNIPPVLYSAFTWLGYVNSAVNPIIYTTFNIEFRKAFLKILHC
Method: (§1) The biological activities of the compounds according to the invention were determined in radioligand binding investigations. All radioligand experiments were performed according to methods described by us (Hübner, H. et al. J. Med. Chem. 2000, 43, 756-762). For the measurement of the affinities to the receptors of the D2-family membrane homogenates of Chinese hamster ovary cells (CHO cells) were used, which stably express the human D2long-, the human D2short- (Hayes, G. et al. Mol. Endocrinol. 1992, 6, 920-926), the human D3- (Sokoloff, P. et al. Eur. J. Pharmacol. 1992, 225, 331-337) or the human D4.4-receptor sub-type, (Asghari, V. J. Neurochem. 1995, 65, 1157-1165) respectively. Basically the binding assays took place by incubation of the receptor homogenates with the radioligand [^3H]spiperone and the compounds under investigation in various concentrations. Determination of the affinities to the D1-receptor took place with native membrane homogenates, obtained from porcine striatum, and the D1-selective radioligands [^3H]SCH 23390.

human D4.4 = molecular target: T2, human D4.4 (Homo sapiens, UniProt P21917); assay: Radioligand binding, human D4.4 in CHO cell membranes, [3H]spiperone; settings: human D4.4 in CHO membranes, average of 2-6 experiments in triplicate, read-out: Receptor binding Ki D4
T2 construct: expressed in transfected cells
T2 sequence (P21917 1-419): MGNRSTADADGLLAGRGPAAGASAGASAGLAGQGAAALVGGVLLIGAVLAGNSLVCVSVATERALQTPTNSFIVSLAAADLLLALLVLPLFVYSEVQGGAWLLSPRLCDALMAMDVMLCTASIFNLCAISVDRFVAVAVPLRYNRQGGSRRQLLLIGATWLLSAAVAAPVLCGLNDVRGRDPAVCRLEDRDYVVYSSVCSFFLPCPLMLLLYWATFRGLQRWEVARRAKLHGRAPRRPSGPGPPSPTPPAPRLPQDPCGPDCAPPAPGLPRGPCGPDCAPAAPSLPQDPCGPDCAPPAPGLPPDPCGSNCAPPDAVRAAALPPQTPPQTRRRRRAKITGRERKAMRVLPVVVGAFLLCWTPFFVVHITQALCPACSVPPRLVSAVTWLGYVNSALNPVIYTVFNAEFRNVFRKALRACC
Method: as §1

human D3 [1] = molecular target: T3, human D3 (Homo sapiens, UniProt P35462); assay: Radioligand binding, human D3 in CHO cell membranes, [3H]spiperone
T3 construct: expressed in transfected cells
T3 sequence (P35462 whole entry): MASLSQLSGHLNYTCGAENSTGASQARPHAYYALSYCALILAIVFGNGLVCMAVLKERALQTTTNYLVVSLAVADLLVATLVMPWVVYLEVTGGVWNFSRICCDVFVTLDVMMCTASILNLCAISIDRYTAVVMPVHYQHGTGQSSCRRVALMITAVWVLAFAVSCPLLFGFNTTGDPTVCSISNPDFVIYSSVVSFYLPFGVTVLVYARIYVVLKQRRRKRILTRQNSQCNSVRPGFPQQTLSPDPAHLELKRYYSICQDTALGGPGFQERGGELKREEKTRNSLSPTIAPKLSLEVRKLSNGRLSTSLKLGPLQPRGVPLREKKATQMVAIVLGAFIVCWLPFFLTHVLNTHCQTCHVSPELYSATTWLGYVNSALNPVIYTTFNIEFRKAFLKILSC
Method: as §1

porcine α1-receptor = assay: Radioligand binding, α1-receptor, porcine cortex membranes, [3H]prazosin; settings: average of 2-6 experiments in triplicate, read-out: Receptor binding Ki alpha1
Method: (§2) Measurement of the binding strengths of the compounds to the serotonin-receptor subtypes 5-HT1a and 5-HT2 was carried out according to methods described by us (Heindl, C. et al. Tetrahedron: Asymmetry 2003, 14, 3141-3152). For this we incubated porcine cortex-membrane preparations with the radioligands [^3H]8-OH-DPAT (for 5-HT1a) or [^3H]ketanserin (5-HT2) and the compounds in various concentrations. In the same way the affinity of the test compounds to the porcine α1-receptor was investigated, wherein porcine cortex-membrane preparations and the α1-selective radioligand [^3H]prazosin were used.

5-HT2 = molecular target: T4, 5-HT2 (Sus scrofa, UniProt P50129); assay: Radioligand binding, 5-HT2, porcine cortex membranes, [3H]ketanserin; settings: average of 2-6 experiments in triplicate, read-out: Receptor binding Ki 5-HT2
T4 construct: we incubated porcine cortex-membrane preparations; from tissue; host or cells: porcine cortex
T4 sequence (P50129 whole entry): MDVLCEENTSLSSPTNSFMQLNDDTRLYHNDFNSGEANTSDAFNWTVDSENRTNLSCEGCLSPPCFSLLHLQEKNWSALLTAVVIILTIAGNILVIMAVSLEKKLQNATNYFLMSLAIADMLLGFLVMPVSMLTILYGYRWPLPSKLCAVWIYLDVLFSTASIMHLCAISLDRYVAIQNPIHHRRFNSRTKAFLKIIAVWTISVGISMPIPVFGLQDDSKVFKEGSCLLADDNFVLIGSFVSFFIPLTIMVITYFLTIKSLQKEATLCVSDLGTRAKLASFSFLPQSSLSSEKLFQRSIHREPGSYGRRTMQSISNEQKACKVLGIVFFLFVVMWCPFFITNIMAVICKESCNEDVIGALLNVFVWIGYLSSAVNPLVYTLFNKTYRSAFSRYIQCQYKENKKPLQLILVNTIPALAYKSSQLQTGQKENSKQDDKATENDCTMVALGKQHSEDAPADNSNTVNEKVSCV
Method: as §2

D1-receptor = molecular target: T5, D1-receptor (Sus scrofa, UniProt P50130); assay: Radioligand binding, D1-receptor, porcine striatum membranes, [3H]SCH 23390; settings: average of 2-6 experiments in triplicate
T5 construct: native membrane homogenates, obtained from porcine striatum; from tissue; host or cells: porcine striatum
T5 sequence (P50130 whole entry): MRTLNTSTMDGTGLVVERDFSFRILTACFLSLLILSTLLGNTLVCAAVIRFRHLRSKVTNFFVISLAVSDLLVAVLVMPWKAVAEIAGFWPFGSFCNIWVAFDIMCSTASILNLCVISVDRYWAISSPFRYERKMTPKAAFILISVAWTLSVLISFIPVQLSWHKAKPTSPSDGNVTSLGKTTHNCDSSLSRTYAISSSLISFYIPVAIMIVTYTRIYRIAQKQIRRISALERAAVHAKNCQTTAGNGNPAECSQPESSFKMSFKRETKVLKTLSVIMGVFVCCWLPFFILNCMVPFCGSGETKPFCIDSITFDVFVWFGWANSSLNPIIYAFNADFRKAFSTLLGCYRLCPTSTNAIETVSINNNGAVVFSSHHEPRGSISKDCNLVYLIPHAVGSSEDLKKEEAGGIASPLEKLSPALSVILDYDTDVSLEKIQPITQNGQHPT
Method: as §1

5-HT1a = molecular target: T6, 5-HT1a (Sus scrofa, UniProt A0A4X1UTF5); assay: Radioligand binding, 5-HT1a, porcine cortex membranes, [3H]8-OH-DPAT; settings: porcine 5-HT1a, average of 2-6 experiments in triplicate, read-out: Receptor binding Ki 5-HT1
T6 construct: we incubated porcine cortex-membrane preparations; from tissue; host or cells: porcine cortex
T6 sequence (A0A4X1UTF5 1-422): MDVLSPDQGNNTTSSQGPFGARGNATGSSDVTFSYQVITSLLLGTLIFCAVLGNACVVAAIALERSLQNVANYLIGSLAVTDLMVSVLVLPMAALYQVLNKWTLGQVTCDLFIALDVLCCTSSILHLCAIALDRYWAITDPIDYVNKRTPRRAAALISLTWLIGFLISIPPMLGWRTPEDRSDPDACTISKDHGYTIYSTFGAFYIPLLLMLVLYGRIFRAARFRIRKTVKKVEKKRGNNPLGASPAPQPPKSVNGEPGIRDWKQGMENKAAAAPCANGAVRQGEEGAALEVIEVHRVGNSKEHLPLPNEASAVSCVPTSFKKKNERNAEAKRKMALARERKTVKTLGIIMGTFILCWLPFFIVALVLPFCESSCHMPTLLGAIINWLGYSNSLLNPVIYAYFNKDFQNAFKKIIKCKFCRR
Method: as §2

human D2long = molecular target: T7, human D2long (Homo sapiens, UniProt P14416); assay: Radioligand binding, human D2long in CHO cell membranes, [3H]spiperone; settings: human receptor in CHO membranes, average of 2-6 experiments in triplicate
T7 construct: expressed in transfected cells
T7 sequence (P14416 whole entry): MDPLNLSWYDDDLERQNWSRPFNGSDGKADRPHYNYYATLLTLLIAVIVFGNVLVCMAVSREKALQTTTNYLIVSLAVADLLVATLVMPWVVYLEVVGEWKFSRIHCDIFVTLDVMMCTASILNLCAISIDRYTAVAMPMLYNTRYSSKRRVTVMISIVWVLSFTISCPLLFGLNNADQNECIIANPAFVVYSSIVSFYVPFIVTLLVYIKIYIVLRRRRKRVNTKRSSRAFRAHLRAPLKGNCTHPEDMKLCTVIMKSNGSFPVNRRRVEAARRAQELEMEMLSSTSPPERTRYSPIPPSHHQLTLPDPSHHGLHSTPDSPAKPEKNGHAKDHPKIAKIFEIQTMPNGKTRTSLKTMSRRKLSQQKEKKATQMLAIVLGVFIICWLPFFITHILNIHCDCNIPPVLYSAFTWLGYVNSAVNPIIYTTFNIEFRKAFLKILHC
Method: as §1

dopamine D3 receptor = molecular target: T8, dopamine D3 receptor (Homo sapiens, UniProt P35462); assay: Mitogenesis assay, [3H]thymidine incorporation in D3 receptor-expressing cells; type: cell-based; settings: for Agonistic activity: with reference to the maximum effect of the full agonist quinpirol; for pEC50: dose-effect curve, seven concentrations in quadruplicate
T8 construct: expressed in transfected cells
T8 sequence (P35462 whole entry): as the sequence (P35462 whole entry) above
Method: Here various concentrations of the compounds under investigation were incubated with D3 receptor-expressing cells and then the receptor-mediated stimulation of the mitogenesis rate was measured by incorporation of the radioactive marker [^3H]thymidine.

human D3 [2] = molecular target: T3, human D3; settings: compounds known from the prior art (WO 2004/004729), read-out: D3-bonding (Ki), comparative substance, cited from earlier work
[3] = Table 1a, read-out: D3-bonding (Ki), substance according to the invention
[4] = human receptor in CHO membranes, [3H]spiperone, average of 2-6 experiments in triplicate, read-out: Receptor binding Ki D3
[5] = Table 1c, read-out: D3-bonding (Ki), substance according to the invention
[6] = Table 1b, read-out: D3-bonding (Ki), substance according to the invention

Row | Compound | pKi (human D2short) | pKi (human D4.4) | pKi (human D3 [1]; [3]) | pKi (human D3 [1]; [4]) | pKi (porcine α1-receptor) | pKi (5-HT2) | pKi (D1-receptor) | pKi (5-HT1a) | pKi (human D2long) | Agonistic activity (dopamine D3 receptor) [%] | pKi (human D3 [1]; [5]) | further results
1 | O=C(NCCCCN1CCN(c2cccc3c2OCCC3)CC1)c1cc2ccccc2[nH]1 [Example 4, N-(4-(4-(chroman-8-yl)piperazin-1-yl)butyl)indol-2-ylcarbamide] | 7.66 | 7.47 | 9.77 | 9.77 | 8.64 | 6.96 | 6.54 | 7.70 | 7.38 | 0 | – | –
2 | N#Cc1ccc2cc(C(=O)NCCCCN3CCN(c4cccc(Cl)c4Cl)CC3)[nH]c2c1 | – | – | – | – | – | – | – | – | – | – | – | pKi (human D3 [2]; Table 1a): 9.46
3 | O=C(NCCCCN1CCN(c2cccc3c2OCCCC3)CC1)c1cc2ccccc2s1 [Example 12, N-(4-(4-(2,3,4,5-tetrahydrobenzo[b]oxepin-9-yl)piperazin-1-yl)butyl)benzo[b]thiophen-2-ylcarbamide] | – | – | – | – | – | – | – | – | – | – | 10.01 | melting point: 124 °C
4 | N#Cc1ccc2sc(C(=O)NCCCCN3CCN(c4cccc5c4OCCCC5)CC3)cc2c1 [Example 13, N-(4-(4-(2,3,4,5-tetrahydrobenzo[b]oxepin-9-yl)piperazin-1-yl)butyl)-5-cyanobenzo[b]thiophen-2-ylcarbamide] | – | – | – | – | – | – | – | – | – | – | 10.01 | –
5 | O=C(NCCCCN1CCN(c2cccc3c2OCCC3)CC1)c1cc2ccccc2s1 [Example 3, N-(4-(4-(chroman-8-yl)piperazin-1-yl)butyl)benzo[b]thiophen-2-ylcarbamide] | 7.08 | 7.30 | – | 9.46 | 8.34 | 7.11 | 6.52 | 7.77 | 6.96 | 38 | 9.80 | pEC50 (dopamine D3 receptor): 8.74; melting point: 134 °C
6 | O=C(NCCCCN1CCN(c2cccc3c2OCC3)CC1)c1cc2ccccc2[nH]1 [Example 2, N-(4-(4-(2,3-dihydrobenzofuran-7-yl)piperazin-1-yl)butyl)indol-2-ylcarbamide] | 7.57 | 7.66 | 9.46 | 9.80 | 8.70 | 6.96 | 6.52 | 7.52 | 7.35 | 0 | – | –
7 | O=C(NCCCCN1CCN(c2cccc3c2OCCCC3)CC1)c1cc2ccccc2[nH]1 [Example 16, N-(4-(4-(2,3,4,5-tetrahydrobenzo[b]oxepin-9-yl)piperazin-1-yl)butyl)indol-2-ylcarbamide] | – | – | 10.28 | – | – | – | – | – | – | – | – | –
8 | N#Cc1ccc2sc(C(=O)NCCCCN3CCN(c4cccc(Cl)c4Cl)CC3)cc2c1 | – | – | – | – | – | – | – | – | – | – | – | pKi (human D3 [2]; Table 1c): 9.60
9 | N#Cc1ccc2cc(C(=O)NCCCCN3CCN(c4cccc5c4OCCCC5)CC3)[nH]c2c1 [Example 17, N-(4-(4-(2,3,4,5-tetrahydrobenzo[b]oxepin-9-yl)piperazin-1-yl)butyl)-6-cyanoindol-2-ylcarbamide] | – | – | 10.12 | – | – | – | – | – | – | – | – | –
10 | O=C(NCCCCN1CCN(c2cccc3c2OCC3)CC1)c1cc2ccccc2s1 [Example 1, N-(4-(4-(2,3-dihydrobenzofuran-7-yl)piperazin-1-yl)butyl)benzo[b]thiophen-2-ylcarbamide] | 7.30 | 7.19 | – | 9.51 | 8.38 | 7.00 | 6.59 | 7.74 | 7.14 | 42 | 9.51 | pEC50 (dopamine D3 receptor): 8.49
11 | N-(4-(4-(2,3,4,5-tetrahydrobenzo[b]oxepin-9-yl)piperazin-1-yl)butyl)-5-bromobenzofuran-2-ylcarbamide [Example 15] | – | – | – | – | – | – | – | – | – | – | – | pKi (human D3 [1]; [6]): 9.96
12 | O=C(NCCCCN1CCN(c2cccc3c2OCCCC3)CC1)c1cc2ccccc2o1 [Example 14, N-(4-(4-(2,3,4,5-tetrahydrobenzo[b]oxepin-9-yl)piperazin-1-yl)butyl)benzofuran-2-ylcarbamide] | – | – | – | – | – | – | – | – | – | – | – | pKi (human D3 [1]; [6]): 10.05
